Here are results for 1 molecule from publication PMC8621208, “Antiseptic 9-Meric Peptide with Potency against Carbapenem-Resistant Acinetobacter baumannii Infection” (International Journal of Molecular Sciences, 2021).

The test system of one data set is E. coli. In words: MIC, broth dilution. The class given is cell-based, Escherichia coli KCTC 1682. Particulars: E. coli; 16 h, MH media; read-out: Minimal Inhibitory Concentration (MIC). An excerpt: Escherichia coli KCTC 1682 was obtained from the Korean Collection for Type Cultures (KCTC) (Jeongeup-si, Korea), Acinetobacter baumannii KCCM 40203, Pseudomonas aeruginosa KCCM 11328 from the Korea Culture Center of Microorganisms (KCCM) (Seoul, Korea). Klebsiella pneumoniae NCCP 16054 were obtained from the National Culture Collection for Pathogens (NCCP) (Osong, Korea). Additionally, two carbapenem-resistant E. coli (CREC E1 and E2), 11 carbapenem-resistant A. baumannii (CRAB C0–C10) and two carbapenem-resistant K. pneumoniae (CRKP K1 and K2) were isolated from the patients, who presented symptoms and signs of infection at Korea University Anam Hospital (Seoul, Korea) (IRB registration no. 2020AN0157, 4 March 2021). CRAB C0–C10 have the OXA-23 gene with carbapenem-resistance.
The minimum inhibitory concentrations (MIC) were determined using broth dilution method. Briefly, all the mentioned bacterial strains were grown overnight at 37 °C by Muller–Hinton (MH) media. […] After 16 h incubation, the bacterial growth was read at 600 nm using a SpectraMAX microplate reader (Molecular Devices, San Jose, CA, USA).

The test system of data set [1] is A. baumannii. In words: MIC, broth dilution. Conditions: 16 h, MH media, read-out: Minimal Inhibitory Concentration (MIC). The format is cell-based, Acinetobacter baumannii KCCM 40203. A digest of the protocol: (§1)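 MH broth, overnight 37 °C preculture; broth dilution; 16 h incubation; A600 read-out. CRAB = OXA-23-positive clinical isolates.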
Data set [2] concerns CRAB C0. In words: MIC, broth dilution. Particulars: read-out: Minimal Inhibitory Concentration (MIC). The format is cell-based, carbapenem-resistant A. baumannii. In a few lines: as §1
The test system of another data set is CRAB C10. In words: MIC, broth dilution. The class given is cell-based, carbapenem-resistant A. baumannii. Particulars: read-out: Minimal Inhibitory Concentration (MIC). A digest of the protocol:
as §1

The next data set relates to CRAB C2. As to the kind of experiment: MIC, broth dilution. The format is cell-based, carbapenem-resistant A. baumannii. Particulars: read-out: Minimal Inhibitory Concentration (MIC). A digest of the protocol: as §1
The next data set has as its system CRAB C3. As to the kind of experiment: MIC, broth dilution. The format is cell-based, carbapenem-resistant A. baumannii. Particulars: read-out: Minimal Inhibitory Concentration (MIC). A digest of the protocol: as §1
The subject of a further data set is CRAB C4. As to the kind of experiment: MIC, broth dilution. The format is cell-based, carbapenem-resistant A. baumannii. Particulars: read-out: Minimal Inhibitory Concentration (MIC). In a few lines: as §1
A further data set has as its system CRAB C5. In words: MIC, broth dilution. The class given is cell-based, carbapenem-resistant A. baumannii. Conditions: read-out: Minimal Inhibitory Concentration (MIC). A digest of the protocol:
as §1

The subject of another data set is CRAB C6. As to the kind of experiment: MIC, broth dilution. The format is cell-based, carbapenem-resistant A. baumannii. Particulars: read-out: Minimal Inhibitory Concentration (MIC). In a few lines:
as §1

For another data set, the system named is CRAB C7. As to the kind of experiment: MIC, broth dilution. The format is cell-based, carbapenem-resistant A. baumannii. Conditions: read-out: Minimal Inhibitory Concentration (MIC). In a few lines: as §1
For a further data set, the system named is CRAB C9. As to the kind of experiment: MIC, broth dilution. The class given is cell-based, carbapenem-resistant A. baumannii. Particulars: read-out: Minimal Inhibitory Concentration (MIC). In a few lines:
as §1

Another data set has as its system CRKP K1. In words: MIC, broth dilution. The class given is cell-based, carbapenem-resistant K. pneumoniae. Particulars: read-out: Minimal Inhibitory Concentration (MIC). In a few lines:
as §1

A further data set has as its system CRKP K2. As to the kind of experiment: MIC, broth dilution. The format is cell-based, carbapenem-resistant K. pneumoniae. Particulars: read-out: Minimal Inhibitory Concentration (MIC). In a few lines: as §1
The subject of data set [3] is sheep red blood cells (sRBC). As to the kind of experiment: Hemolytic assay. Particulars: 100 μM. The class given is cell-based. How it is done: The peptide-induced toxicity was determined by hemolytic against Sheep red blood cells (sRBC). Briefly, Fresh sRBC were washed at least three times with phosphate-buffered saline (PBS) and the debris were removed by centrifugation (1000× g for 5 min, 4 °C). All the peptides including melittin control (0.2–100 μM) and positive control (1% (v/v) triton X-100) were incubated with 4% (v/v) sRBC for 1 h at 37 °C followed by centrifugation at 1000× g for 5 min. The supernatant was measured at 405 nm using a microplate reader.

Data set [4] has as its system A. baumannii. The class given is cell-based, Acinetobacter baumannii. Conditions: peptide pre-incubated 6 h at 37 °C. How it is done:
(§2) All the peptides at their MICs were pre-incubated with proteolytic enzymes such as trypsin and α-chymotrypsin (10,000:1; peptide: enzyme ratio) for 6 h at 37 °C. Then, 100 μL of peptide-protease cocktail was added to the 100 µL bacterial suspension (E. coli, A. baumannii and CRAB C0, 2 × 10^5 CFU/mL) and further incubated for 16 h at 37 °C. Bacterial suspension without peptide and protease served as negative control. The analysis was repeated at three times using independent experiments, and the degree of bacterial growth was measured at 600 nm using a microplate reader.

For data set [5], the system named is CRAB C0. The format is cell-based, carbapenem-resistant A. baumannii. Conditions: peptide pre-incubated 6 h at 37 °C. How it is done:
as §2

Data set [6] deals with RAW 264.7 murine macrophage cells. As to the kind of experiment: Cytotoxicity, WST-8 assay. Particulars: 100 μM, 24 h. The format is cell-based, mouse. Here is the method:
(§3) Figure 6 In vitro cytotoxicity of Pro9-3 and their analogues. (A) Dose-response curve represent the hemolytic activity of peptides against sheep red blood cell (sRBC). Concentration-dependent (0–100 μM) toxic effects induced by peptides on (B) RAW 264.7 murine macrophage cells and (C) human kidney (HK)-2 cells for 24 h. Melittin was used as a control. Statistical analysis was performed using two-way analysis of variance (ANOVA) with Dunnett’s comparison test. Values are expressed as mean ± SEM of three independent experiments. * p < 0.05, ** p < 0.01, *** p < 0.001, and ns, non-significant compared with the control.
(§4) RAW 264.7 mouse macrophage cells and Human kidney (HK)-2 cells were obtained from Korean cell line bank (Seoul, Korea) and the cells were maintained in DMEM culture media (Thermo Fischer Scientific Inc., Waltham, MA, USA) supplemented with 10% fetal bovine serum, 1% penicillin/streptomycin at 37 °C in a humidified 5% CO2 incubator. The cytotoxicity of the peptides was analyzed using WST-8 cell proliferation assay (Biomax Co, Ltd., Seoul, Korea), and the experiment was performed according to the kit protocol. Briefly, cells (1 × 10^4) were seeded in 96-well plate and the peptides treatment (0–100 μM) were initiated at 80% confluency and then for 24 h. After incubation, WST-8 reagent was added and the change in absorbance was read at 450 nm against reagent blank, and values are expressed as percent cell survival.

Data set [7] concerns human kidney (HK)-2 cells. In words: Cytotoxicity, WST-8 assay. Particulars: 100 μM, 24 h. The format is cell-based. Here is the method: as §3, §4

Converted amounts (≈) assume the structure as drawn. Like-named read-outs stand apart in the source and are kept apart here. Where a SMILES comes first, the peptide text is derived from it. [ ]: non-standard residue; d: D form.

Take `CC[C@@H](C)[C@@H](NC(=O)[C@@H](Cc1c[nH]c2ccccc12)NC(=O)[C@@H](CCCNC(=N)N)NC(=O)[C@H](N)CCCNC(=N)N)C(=O)N[C@H](C)C(=O)N[C@H](CC(C)C)C(=O)N[C@H](Cc1c[nH]c2ccccc12)C(=O)N[C@H](CC(C)C)C(=O)N[C@H](CCCNC(=N)N)C(N)=O` [R-Pro9-3D, rrwialwlr-NH2] (H-[dR][dR][dW][dI][dA][dL][dW][dL][dR]-NH2): the MIC with E. coli is given as 8 µM (≈ 10.1 µg/mL); in the data set on A. baumannii [1] it was 4 µM (≈ 5.07 µg/mL); with CRAB C0 [2] it was 4 µM (≈ 5.07 µg/mL); in the data set with CRAB C10, 4 µM (≈ 5.07 µg/mL); in the data set with CRAB C2 it was 4 µM (≈ 5.07 µg/mL); with CRAB C3 it was 8 µM (≈ 10.1 µg/mL). The MIC in the data set with CRAB C4 was 4 µM (≈ 5.07 µg/mL); in the data set with CRAB C5, 4 µM (≈ 5.07 µg/mL); in the data set on CRAB C6 it was 4 µM (≈ 5.07 µg/mL); with CRAB C7, 4 µM (≈ 5.07 µg/mL); with CRAB C9 it was 4 µM (≈ 5.07 µg/mL); in the data set with CRKP K1, 16 µM (≈ 20.3 µg/mL). Further, the MIC in the data set with CRKP K2 came to 8 µM (≈ 10.1 µg/mL). In data set [3], this molecule had a Hemolytic activity of 1.2%. Further, the “Minimal Inhibitory Concentration (MIC)” value with A. baumannii [4] (A. baumannii + Trypsin), in the data set on A. baumannii [4] (A. baumannii + α-Chymotrypsin), in the data set on CRAB C0 [5] (CRAB C0 + Trypsin) and in the data set with CRAB C0 [5] (CRAB C0 + α-Chymotrypsin) was 4 µM in each case. In data set [6], the “Toxicity in RAW 264.7 cells” value is listed as 20.3%. In addition, the “Toxicity in human kidney (HK)-2 cells” value in data set [7] came to 9.6%.
